Data as given in US20250367343A1, “CLINICAL DRESSING LOADED WITH COFFEE EXTRACT” (KING SAUD UNIVERSITY, priority 2024, published 2025).

system: methicillin-resistant Staphylococcus aureus (ATCC 43300); assay: Standard antibiotic sensitivity test using the Vitek-2 system; type: cell-based; conditions: strain ATCC 43300

Compound	antibiotic sensitivity of the MRSA strain
CC1(C)S[C@@H]2[C@H](NC(=O)[C@H](N)c3ccccc3)C(=O)N2[C@H]1C(=O)O [ampicillin]	resistant
CC1(C)S[C@@H]2[C@H](NC(=O)Cc3ccccc3)C(=O)N2[C@H]1C(=O)O [penicillin G]	resistant
amoxicillin-alavulanate	resistant
Cc1onc(-c2ccccc2)c1C(=O)N[C@@H]1C(=O)N2[C@@H]1SC(C)(C)[C@@H]2C(=O)O [oxacillin]	resistant
CO[C@@]1(NC(=O)Cc2cccs2)C(=O)N2C(C(=O)O)=C(COC(N)=O)CS[C@@H]21 [cefoxitin]	resistant
